The record followed here is ChEMBL document CHEMBL1144763, “Synthesis of diglycosylceramides and evaluation of their iNKT cell stimulatory properties” (Bioorg Med Chem Lett, 2008).

Structures are written as SMILES. The source made the active and inactive calls. No cut-off for these calls is given here.

The subject of the assay is DN3.2.D3. Kind of assay: Stimulation of IL2 release in mouse DN3.2.D3 cells by ELISA. Type of assay: functional, cell-based. A general note: An ELISA detects its analyte on a solid surface through an enzyme-linked reagent.

Turning to `CCCCCCCCCCCCCC[C@@H](O)[C@@H](O)[C@H](CO[C@H]1O[C@H](CNC(C)=O)[C@H](O)[C@H](O)[C@H]1O[C@H]1O[C@H](CO)[C@H](O)[C@H](O)[C@H]1O)NC(=O)CCCCCCC`, the outcome was Active.

As to `CCCCCCCCCCCCCC[C@@H](O)[C@@H](O)[C@H](CO[C@H]1O[C@H](CO)[C@H](O)[C@H](O)[C@H]1O)NC(=O)CCCCCCC`, the outcome was Active.

Turning to `CCCCCCCCCCCCCC[C@@H](O)[C@@H](O)[C@H](CO[C@H]1O[C@H](CNC(C)=O)[C@H](O)[C@H](O)[C@H]1O)NC(=O)CCCCCCC`, the result was Active.
